{"source": "paper PMC9203742", "about": "(Nature Communications, 2022)", "key": {"primary cortical neurons": {"test_system": "primary cortical neurons", "experiment": "Fura-2 Ca2+ imaging (abnormal Ca2+ response) in cultured cortical neurons"}, "[1]": {"test_system": "mGlu1 construct not given", "experiment": "Fura-2 Ca2+ imaging in HEK293 cells, source data Suppl Fig1, right group (c18-c26); construct not given", "format": "cell-based, rat", "conditions": "single-cell values, cells #15-#20; right group of third block", "description": "(§1) Supplement 41467_2022_30828_MOESM6_ESM.zip/Ojima et al_source data_Suppl Fig.xlsx, sheet \"Suppl Fig1\" | column: Glu; NiCl2; CuCl2; ZnCl2; CdCl2; Na2PdCl2; Pd(bpy)"}, "mGlu1 E60H/N264H mutant": {"molecular_target": "T1, mGlu1 E60H/N264H mutant (Rattus norvegicus, UniProt P23385, E60H/N264H)", "T1 construct": "expressed in transfected cells; host or cells: HEK293", "T1 sequence (P23385 19-1199 E60H/N264H)": "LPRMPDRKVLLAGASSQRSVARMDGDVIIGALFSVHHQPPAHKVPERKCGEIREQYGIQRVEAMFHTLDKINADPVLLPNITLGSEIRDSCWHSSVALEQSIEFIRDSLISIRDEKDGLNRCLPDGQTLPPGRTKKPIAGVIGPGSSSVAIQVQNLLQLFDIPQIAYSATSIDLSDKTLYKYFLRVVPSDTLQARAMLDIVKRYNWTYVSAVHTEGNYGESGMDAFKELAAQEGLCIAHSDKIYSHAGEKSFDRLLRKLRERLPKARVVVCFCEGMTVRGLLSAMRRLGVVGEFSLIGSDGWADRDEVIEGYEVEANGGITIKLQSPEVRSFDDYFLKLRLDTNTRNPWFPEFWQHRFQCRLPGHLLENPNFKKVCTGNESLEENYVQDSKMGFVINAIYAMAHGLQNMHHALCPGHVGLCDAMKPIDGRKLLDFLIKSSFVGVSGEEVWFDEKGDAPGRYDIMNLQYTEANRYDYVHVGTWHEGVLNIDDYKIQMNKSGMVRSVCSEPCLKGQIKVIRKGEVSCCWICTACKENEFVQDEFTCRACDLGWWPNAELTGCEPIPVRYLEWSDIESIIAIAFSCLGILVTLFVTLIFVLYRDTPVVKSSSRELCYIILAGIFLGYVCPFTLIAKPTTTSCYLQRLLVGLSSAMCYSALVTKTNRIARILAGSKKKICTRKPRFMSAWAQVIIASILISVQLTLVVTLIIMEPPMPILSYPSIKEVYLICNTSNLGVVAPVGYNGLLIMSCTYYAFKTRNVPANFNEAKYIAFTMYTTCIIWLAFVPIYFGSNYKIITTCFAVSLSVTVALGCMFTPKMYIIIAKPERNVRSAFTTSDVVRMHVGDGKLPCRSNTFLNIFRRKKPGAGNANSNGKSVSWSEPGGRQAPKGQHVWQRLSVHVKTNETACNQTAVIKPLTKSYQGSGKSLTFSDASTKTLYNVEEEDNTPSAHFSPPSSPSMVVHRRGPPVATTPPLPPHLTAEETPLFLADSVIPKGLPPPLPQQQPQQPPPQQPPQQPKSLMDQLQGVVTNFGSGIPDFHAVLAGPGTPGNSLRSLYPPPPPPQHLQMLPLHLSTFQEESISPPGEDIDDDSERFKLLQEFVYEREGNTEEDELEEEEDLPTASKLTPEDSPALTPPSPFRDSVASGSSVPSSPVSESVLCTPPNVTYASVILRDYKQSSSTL", "experiment": "Fura-2 Ca2+ imaging in HEK293 cells expressing mGlu1 E60H/N264H", "format": "cell-based", "conditions": "single-cell values #1-#20; E60H/N264H"}, "PC12 cells": {"test_system": "PC12 cells", "experiment": "Cell proliferation assay of undifferentiated PC12 cells", "conditions": "for cell proliferation, Ave (Fig.4c): average of #1-#3"}, "mGlu1 A59H/G266H mutant": {"molecular_target": "T2, mGlu1 A59H/G266H mutant (Rattus norvegicus, UniProt P23385, A59H/G266H)", "T2 construct": "expressed in transfected cells; host or cells: HEK293", "T2 sequence (P23385 19-1199 A59H/G266H)": "as the sequence (P23385 19-1199 E60H/N264H) above, with A41H, H42E, H246N, G248H counted along it", "experiment": "Fura-2 Ca2+ imaging in HEK293 cells expressing mGlu1 A59H/G266H", "format": "cell-based", "conditions": "single-cell values"}, "[2]": {"test_system": "HEK293 cells, control vector", "experiment": "Inositol-1-phosphate (IP1) accumulation assay, HEK293 cells transfected with control vector", "format": "cell-based", "conditions": "30 µM Pd(bpy); Vec"}, "[3]": {"test_system": "mGlu1 construct not given", "experiment": "Fura-2 Ca2+ imaging in HEK293 cells, source data Suppl Fig1, left group (c0-c8); construct not given", "format": "cell-based, rat", "conditions": "single-cell values, cells #15-#20; left group of third block", "description": "as §1"}, "mGlu1 P58H/N264H mutant": {"molecular_target": "T3, mGlu1 P58H/N264H mutant (Rattus norvegicus, UniProt P23385, N264H/P58H)", "T3 construct": "expressed in transfected cells; host or cells: HEK293", "T3 sequence (P23385 19-1199 P58H/N264H)": "as the sequence (P23385 19-1199 E60H/N264H) above, with P40H, H42E counted along it", "experiment": "Fura-2 Ca2+ imaging in HEK293 cells expressing mGlu1 P58H/N264H", "format": "cell-based"}}, "note": "Values joined by “and” are separate entries in the source; they are usually repeats but may differ in a detail not shown here. Equal values may be shown once."}
{"smiles": "O=[N+]([O-])[O-].O=[N+]([O-])[O-].[Pd+2].c1ccc(-c2ccccn2)nc1", "note": "[Pd(bpy), Pd(bpy)(NO3)2]", "values": [{"measurement": "abnormal Ca2+ response, ave (Fig.4d)", "setting": "primary cortical neurons; 1 µM Pd complex", "result": 0.03652}, {"measurement": "abnormal Ca2+ response, ave (Fig.4d)", "setting": "primary cortical neurons; 3 µM Pd complex", "result": -0.0001233}, {"measurement": "[Ca2+]i elevation (abnormal Ca2+ response)", "setting": "primary cortical neurons; 10 μM", "result": "gradual [Ca^2+]i elevation was observed"}, {"measurement": "abnormal Ca2+ response, ave (Fig.4d)", "setting": "primary cortical neurons; 10 µM Pd complex", "result": 0.1988}, {"measurement": "[Ca2+]i elevation (abnormal Ca2+ response)", "setting": "primary cortical neurons; 30 μM", "result": "more prominent"}, {"measurement": "abnormal Ca2+ response, ave (Fig.4d)", "setting": "primary cortical neurons; 30 µM Pd complex", "result": 2.468}, {"measurement": "abnormal Ca2+ response, ave (Fig.4d)", "setting": "primary cortical neurons; 100 µM Pd complex", "result": 3.162}, {"measurement": "abnormal Ca2+ response, ave (Fig.4d)", "setting": "primary cortical neurons; 300 µM Pd complex", "result": 3.458}, {"measurement": "Ca2+ response of individual cells (source data, sheet Suppl Fig1)", "setting": "[1]", "result": "0.001923 and 0.0116 and 0.02873 and 0.01569 and 0.04602 and 0.003608"}, {"measurement": "Ca2+ response of individual cells (source data Suppl Fig1), E60H/N264H", "setting": "mGlu1 E60H/N264H mutant", "result": "-0.015 and 0.1464 and 0.05592 and 0.009469 and 0.1218 and 0.005362 and 1.129 and 0.9384 and 0.8641 and 0.6693 and 0.02784 and 0.0255 and 0.002069 and -0.0022 and -0.0079 and 0.08848 and 0.002385 and -0.01194 and -0.01146 and 0.1752"}, {"measurement": "Cell growth", "setting": "PC12 cells; 30 μM", "result": "clearly suppressed"}, {"measurement": "cell proliferation, single experiments #1-#3 (Fig.4c)", "setting": "PC12 cells; Pd complex 1 µM", "result": "1.5318 and 0.8604 and 0.8836"}, {"measurement": "cell proliferation, Ave (Fig.4c)", "setting": "PC12 cells; Pd complex 1 µM", "result": 1.092}, {"measurement": "cell proliferation, single experiments #1-#3 (Fig.4c)", "setting": "PC12 cells; Pd complex 3 µM", "result": "1.071 and 0.9613 and 0.8889"}, {"measurement": "cell proliferation, Ave (Fig.4c)", "setting": "PC12 cells; Pd complex 3 µM", "result": 0.9739}, {"measurement": "cell proliferation, single experiments #1-#3 (Fig.4c)", "setting": "PC12 cells; Pd complex 10 µM", "result": "1.234 and 0.8888 and 0.7605"}, {"measurement": "cell proliferation, Ave (Fig.4c)", "setting": "PC12 cells; Pd complex 10 µM", "result": 0.961}, {"measurement": "cell proliferation, single experiments #1-#3 (Fig.4c)", "setting": "PC12 cells; Pd complex 30 µM", "result": "0.9447 and 0.7842 and 0.619"}, {"measurement": "cell proliferation, Ave (Fig.4c)", "setting": "PC12 cells; Pd complex 30 µM", "result": 0.7826}, {"measurement": "cell proliferation, Ave (Fig.4c)", "setting": "PC12 cells; Pd complex 100 µM", "result": 0.07957}, {"measurement": "Ca2+ response of individual cells (source data Suppl Fig1), A59H/G266H", "setting": "mGlu1 A59H/G266H mutant", "result": "0.2879 and 0.01529 and 0.1021 and -0.0047 and 0.3807 and 0.03304 and 0.0004923 and 0.02376 and -0.0301 and -0.02225 and 0.0004846 and -0.005677 and 0.7275 and 0.6736"}, {"measurement": "IP1 accumulation, single experiments", "setting": "[2]", "result": "1.069 and 0.9695 and 0.8004"}, {"measurement": "Ca2+ response of individual cells (source data, sheet Suppl Fig1)", "setting": "[3]", "result": "0.505 and 0.8787 and 1.066 and 0.2405 and 0.9566 and 0.7627"}, {"measurement": "EC50", "setting": "mGlu1 P58H/N264H mutant; HEK293 cells, Fura-2, read-out: EC50, Ca2+ response (Δratio)", "result": 1.2, "unit": "µM"}, {"measurement": "Ca2+ response of individual cells (source data Suppl Fig1), P58H/N264H", "setting": "mGlu1 P58H/N264H mutant; single-cell values #1-#20, P58H/N264H", "result": "1.407 and 1.235 and 0.2781 and 0.4382 and 0.4216 and 0.8249 and 0.694 and 0.5635 and 0.8179 and 0.3484 and 1.211 and 0.7928 and 0.02745 and 0.7691 and 1.112 and 0.5883 and 0.4797 and 0.3836 and 0.0272 and 0.6649"}]}
